Measurements published in patent US11142515B2, “Pyrazolyl-ureas as kinase inhibitors” (RESPIVERT LIMITED, priority 2014, dated 2021).

Legend:
[1] = target: T1, p38 MAPKα isoform (MAPK14) (Homo sapiens, UniProt Q16539); assay: p38 MAPKα enzyme inhibition (Z-LYTE FRET); type: biochemical; settings: Table 2B, unit inferred; read-out: p38 MAPKα (Enzyme Profile)
T1 construct: purchased Life Technologies
In short: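 Recombinant human MAPK14 (40 ng/mL stock) was preincubated 2 h at RT with compound (stock dilutions 0.0012-40 μg/mL). The Z-LYTE FRET read-out used a MAPKAP-K2-derived peptide, and protease development for 1 h cleaved only non-phosphorylated peptide. Phosphorylation was calculated from the coumarin/fluorescein emission ratio.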

[2] = target: T2, p38MAPKγ (MAPK12) (Homo sapiens, UniProt P53778); assay: p38 MAPKγ enzyme inhibition (Z-LYTE FRET); type: biochemical; settings: Table 2B, unit inferred; read-out: p38 MAPKγ (Enzyme Profile)
T2 construct: purchased Life Technologies
T2 sequence (P53778 1-367): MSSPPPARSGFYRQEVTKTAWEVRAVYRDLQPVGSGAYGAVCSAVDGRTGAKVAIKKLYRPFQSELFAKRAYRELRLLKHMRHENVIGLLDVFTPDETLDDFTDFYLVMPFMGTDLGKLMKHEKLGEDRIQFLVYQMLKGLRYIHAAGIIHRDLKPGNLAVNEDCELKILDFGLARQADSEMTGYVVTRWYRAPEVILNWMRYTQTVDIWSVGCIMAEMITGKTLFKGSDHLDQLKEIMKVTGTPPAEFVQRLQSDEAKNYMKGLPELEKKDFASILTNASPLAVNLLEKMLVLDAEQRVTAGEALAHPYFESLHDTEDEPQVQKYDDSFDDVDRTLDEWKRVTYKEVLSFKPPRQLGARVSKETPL
In short: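 Z-LYTE read-out: after 1 h protease development, only non-phosphorylated peptide is cleaved, and the donor/acceptor (coumarin/fluorescein) ratio reports phosphorylation. Beforehand, enzyme and compound (stock concentrations 0.0012–40 μg/mL) were preincubated 2 h at RT, then the kinase reaction ran 1 h at RT with peptide and ATP (8 μM and 400 μM stocks).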

T1 sequence (Q16539 whole entry, canonical isoform): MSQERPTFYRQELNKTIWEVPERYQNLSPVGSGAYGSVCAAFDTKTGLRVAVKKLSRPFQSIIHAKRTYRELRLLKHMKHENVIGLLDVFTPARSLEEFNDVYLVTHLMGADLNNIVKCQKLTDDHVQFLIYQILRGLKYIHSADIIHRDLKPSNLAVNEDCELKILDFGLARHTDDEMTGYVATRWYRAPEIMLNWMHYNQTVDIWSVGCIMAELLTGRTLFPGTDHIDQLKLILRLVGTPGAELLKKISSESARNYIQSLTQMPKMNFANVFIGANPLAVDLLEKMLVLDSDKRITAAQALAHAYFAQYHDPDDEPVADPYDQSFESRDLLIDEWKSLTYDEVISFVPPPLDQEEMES

| Structure (SMILES) | IC50 [1] [nM] | IC50 [2] [nM] |
| --- | --- | --- |
| COC(C)(C)CNC(=O)c1cnc(Nc2cc(COc3ccc(NC(=O)Nc4cc(C(C)(C)C)nn4-c4ccc(C)cc4)c4ccccc34)ccn2)cn1 [Example 74] | 43 | 482 |
| Cc1ccc(-n2nc(C(C)(C)C)cc2NC(=O)Nc2ccc(OCc3ccnc(Nc4cnc(C(=O)N5CCC5)cn4)c3)c3ccccc23)cc1 [Example 128, 1-(4-((2-((5-(azetidine-1-carbonyl)pyrazin-2-yl)amino)pyridin-4-yl)methoxy)naphthalen-1-yl)-3-(3-(tert-butyl)-1-(p-tolyl)-1H-pyrazol-5-yl)urea] | 55 | > 14700 |
| Cc1ccc(-n2nc(C(C)(C)C)cc2NC(=O)Nc2ccc(OCc3ccnc(Nc4cnc(C(=O)N5CCC(O)CC5)cn4)c3)c3ccccc23)cc1 [Example 127, 1-(3-(tert-butyl)-1-(p-tolyl)-1H-pyrazol-5-yl)-3-(4-((2-((5-(4-hydroxypiperidine-1-carbonyl)pyrazin-2-yl)amino)pyridin-4-yl)methoxy)naphthalen-1-yl) urea] | 6.8 | 93 |
| Cc1ccc(-n2nc(C(C)(C)C)cc2NC(=O)Nc2ccc(OCc3ccnc(Nc4cnc(C(=O)NCCOC(C)(C)C)cn4)c3)c3ccccc23)cc1 [Example 125, N-(2-(tert-butoxy)ethyl)-5-((4-(((4-(3-(3-(tert-butyl)-1-(p-tolyl)-1H-pyrazol-5-yl)ureido)naphthalen-1-yl)oxy)methyl)pyridin-2-yl)amino)pyrazine-2-carboxamide] | 302 | > 13500 |
| CCc1cncc(Nc2cc(COc3ccc(NC(=O)Nc4cc(C(C)(C)C)nn4-c4ccc(C)c(OC)c4)c4ccccc34)ccn2)n1 [Example 70] | 70 | 372 |
| Cc1ccc(-n2nc(C(C)(C)C)cc2NC(=O)Nc2ccc(OCc3ccnc(Nc4cncc(NC(C)C)n4)c3)c3ccccc23)cc1 [Example 117, 1-(3-(tert-butyl)-1-(p-tolyl)-1H-pyrazol-5-yl)-3-(4-((2-((6-(isopropylamino)pyrazin-2-yl)amino)pyridin-4-yl)methoxy)naphthalen-1-yl) urea] | 16 | 150 |
| COCc1ccc(-n2nc(C(C)(C)C)cc2NC(=O)Nc2ccc(OCc3ccnc(Nc4cnccn4)c3)c3ccccc23)cc1 [Example 64] | 9.7 | 39 |
| COc1ccc(-n2nc(C(C)(C)C)cc2NC(=O)Nc2ccc(OCc3ccnc(Nc4cncc(N(C)C)n4)c3)c3ccccc23)cc1 [Example 104, 1-(3-(tert-butyl)-1-(4-methoxyphenyl)-1H-pyrazol-5-yl)-3-(4-((2-((6-(dimethyl-amino)pyrazin-2-yl)amino)pyridin-4-yl)methoxy)naphthalen-1-yl)urea] | 8.9 | 223 |
| CC(C)(C)c1cc(NC(=O)Nc2ccc(OCc3ccnc(Nc4cnccn4)c3)c3ccccc23)n(-c2ccccc2)n1 [Example 75] | 17 | 179 |
| Cc1ccc(-n2nc(C(C)(C)C)cc2NC(=O)Nc2ccc(OCc3ccnc(Nc4cncc(C(C)C)n4)c3)c3ccccc23)cc1 [Example 68] | 132 | 624 |

Further lines, results first:

| IC50 [1] [nM] | IC50 [2] [nM] | Structure (SMILES) |
| --- | --- | --- |
| 15 | > 14300 | CC(C)(C)c1cc(NC(=O)Nc2ccc(OCc3ccnc(Nc4cnc(C(=O)N5CCCC5)cn4)c3)c3ccccc23)n(-c2ccc(F)cc2)n1 [Example 215, 1-(3-(tert-butyl)-1-(4-fluoro-phenyl)-1H-pyrazol-5-yl)-3-(4-((2-((5-(pyrrolidine-1-carbonyl)pyrazin-2-yl)amino)pyridin-4-yl)methoxy)naphthalen-1-yl)urea] |
| 18 | 1700 | Cc1ccc(-n2nc(C(C)(C)C)cc2NC(=O)Nc2ccc(OCc3ccnc(Nc4cnc(C(=O)N5CC[C@@H](F)C5)cn4)c3)c3ccccc23)cc1 [Example 245, (R)-1-(3-(tert-butyl)-1-(p-tolyl)-1H-pyrazol-5-yl)-3-(4-((2-((5-(3-fluoropyrrolidine-1-carbonyl)pyrazin-2-yl)amino)pyridin-4-yl)methoxy)naphthalen-1-yl)urea] |
| 36 | 427 | CCc1cnc(Nc2cc(COc3ccc(NC(=O)Nc4cc(C(C)(C)C)nn4-c4cccc(C)c4)c4ccccc34)ccn2)cn1 [Example 159, 1-(3-(tert-butyl)-1-(m-tolyl)-1H-pyrazol-5-yl)-3-(4-((2-((5-ethylpyrazin-2-yl)amino)pyridin-4-yl)methoxy)naphthalen-1-yl)urea] |
| 89 | > 14300 | Cc1ccc(-n2nc(C(C)(C)C)cc2NC(=O)Nc2ccc(OCc3ccnc(Nc4cnc(C(=O)N5CC(F)C5)cn4)c3)c3ccccc23)cc1 [Example 193, 1-(3-(tert-butyl)-1-(p-tolyl)-1H-pyrazol-5-yl)-3-(4-((2-((5-(3-fluoroazetidine-1-carbonyl)pyrazin-2-yl)amino)pyridin-4-yl)methoxy)naphthalen-1-yl)urea] |
| 4.7 | 37 | Cc1ccc(-n2nc(C(C)(C)C)cc2NC(=O)Nc2ccc(OCc3ccnc(Nc4cnc(C(=O)N5CC[C@@H](O)C5)cn4)c3)c3ccccc23)cc1 [Example 162, (R)-1-(3-(tert-butyl)-1-(p-tolyl)-1H-pyrazol-5-yl)-3-(4-((2-((5-(3-hydroxypyrrolidine-1-carbonyl)pyrazin-2-yl)amino)pyridin-4-yl)methoxy)naphthalen-1-yl)urea] |
| 35 | 329 | COc1cccc(-n2nc(C(C)(C)C)cc2NC(=O)Nc2ccc(OCc3ccnc(Nc4cnc(C)c(C)n4)c3)c3ccccc23)c1 [Example 170, 1-(3-(tert-butyl)-1-(3-methoxyphenyl)-1H-pyrazol-5-yl)-3-(4-((2-((5,6-dimethylpyrazin-2-yl)amino)pyridin-4-yl)methoxy)naphthalen-1-yl)urea] |
| 9.4 | 98 | Cc1ccc(-n2nc(C(C)(C)C)cc2NC(=O)Nc2ccc(OCc3ccnc(Nc4cnc(C(=O)N5CCC[C@@H](O)C5)cn4)c3)c3ccccc23)cc1 [Example 233, (R)-1-(3-(tert-butyl)-1-(p-tolyl)-1H-pyrazol-5-yl)-3-(4-((2-((5-(3-hydroxypiperidine-1-carbonyl)pyrazin-2-yl)amino)pyridin-4-yl)methoxy)naphthalen-1-yl)urea] |
| 8.4 | 29 | CC(C)(C)c1cc(NC(=O)Nc2ccc(OCc3ccnc(Nc4cnccn4)c3)c3ccccc23)n(-c2cccc(CCO)c2)n1 [Example 237, 1-(3-(tert-butyl)-1-(3-(2-hydroxyethyl)phenyl)-1H-pyrazol-5-yl)-3-(4-((2-(pyrazin-2-ylamino)pyridin-4-yl)methoxy)naphthalen-1-yl)urea] |
| 18 | > 14000 | COc1ccc(-n2nc(C(C)(C)C)cc2NC(=O)Nc2ccc(OCc3ccnc(Nc4cnc(C(=O)N5CCCC5)cn4)c3)c3ccccc23)cn1 [Example 219, 1-(3-(tert-butyl)-1-(6-methoxypyridin-3-yl)-1H-pyrazol-5-yl)-3-(4-((2-((5-(pyrrolidine-1-carbonyl)pyrazin-2-yl)amino)pyridin-4-yl)methoxy)naphthalen-1-yl)urea] |
| 69 | 1550 | Cc1ccc(-n2nc(C(C)(C)C)cc2NC(=O)Nc2ccc(OCc3ccnc(Nc4cnc(C)c(C)n4)c3)c3ccccc23)cc1C [Example 146, 1-(3-(tert-butyl)-1-(3,4-dimethylphenyl)-1H-pyrazol-5-yl)-3-(4-((2-((5,6-dimethylpyrazin-2-yl)amino)pyridin-4-yl)methoxy)naphthalen-1-yl)urea] |
| 4.7 | 51 | Cc1ccc(-n2nc(C(C)(C)C)cc2NC(=O)Nc2ccc(OCc3ccnc(Nc4cnc(C(=O)N5C[C@@H](O)[C@H](O)C5)cn4)c3)c3ccccc23)cc1 [Example 248, 1-(3-(tert-butyl)-1-(p-tolyl)-1H-pyrazol-5-yl)-3-(4-((2-((5-((3R,4R)-3,4-dihydroxy-pyrrolidine-1-carbonyl)pyrazin-2-yl)amino)pyridin-4-yl)methoxy)naphthalen-1-yl)urea] |
| 35 | 439 | CCc1cnc(Nc2cc(COc3ccc(NC(=O)Nc4cc(C(C)(C)C)nn4-c4ccc(C)c(C)c4)c4ccccc34)ccn2)cn1 [Example 151, 1-(3-(tert-butyl)-1-(3,4-dimethylphenyl)-1H-pyrazol-5-yl)-3-(4-((2-((5-ethylpyrazin-2-yl)amino)pyridin-4-yl)methoxy)naphthalen-1-yl)urea] |
| 32 | 442 | COCCCc1cnc(Nc2cc(COc3ccc(NC(=O)Nc4cc(C(C)(C)C)nn4-c4ccc(C)cc4)c4ccccc34)ccn2)cn1 [Example 188, 1-(3-(tert-butyl)-1-(p-tolyl)-1H-pyrazol-5-yl)-3-(4-((2-((5-(3-methoxypropyl)pyrazin-2-yl)amino)pyridin-4-yl)methoxy)naphthalen-1-yl)urea] |
| 19 | > 14000 | Cc1ccc(-n2nc(C(C)(C)C)cc2NC(=O)Nc2ccc(OCc3ccnc(Nc4cnc(C(=O)N5CC[C@H](F)C5)cn4)c3)c3ccccc23)cc1 [Example 242, (S)-1-(3-(tert-butyl)-1-(p-tolyl)-1H-pyrazol-5-yl)-3-(4-((2-((5-(3-fluoropyrrolidine-1-carbonyl)pyrazin-2-yl)amino)pyridin-4-yl)methoxy)naphthalen-1-yl)urea] |
